Measured values from patent US7470711B2, “Piperidinyl substituted cyclohexane-1,4-diamines” (Janssen Pharmaceutica N.V., priority 2005, dated 2008).
Read-outs that look alike come from different tables or passages of the source.

Tests used:
α1b-AR = molecular target: T1, α1b-AR (Homo sapiens, UniProt P35368); assay: α1-Adrenergic receptor radio-ligand binding assay, α1b subtype
T1 construct: expressed in transfected cells; host or cells: COS-7 cells (membranes)
T1 sequence (P35368 1-520): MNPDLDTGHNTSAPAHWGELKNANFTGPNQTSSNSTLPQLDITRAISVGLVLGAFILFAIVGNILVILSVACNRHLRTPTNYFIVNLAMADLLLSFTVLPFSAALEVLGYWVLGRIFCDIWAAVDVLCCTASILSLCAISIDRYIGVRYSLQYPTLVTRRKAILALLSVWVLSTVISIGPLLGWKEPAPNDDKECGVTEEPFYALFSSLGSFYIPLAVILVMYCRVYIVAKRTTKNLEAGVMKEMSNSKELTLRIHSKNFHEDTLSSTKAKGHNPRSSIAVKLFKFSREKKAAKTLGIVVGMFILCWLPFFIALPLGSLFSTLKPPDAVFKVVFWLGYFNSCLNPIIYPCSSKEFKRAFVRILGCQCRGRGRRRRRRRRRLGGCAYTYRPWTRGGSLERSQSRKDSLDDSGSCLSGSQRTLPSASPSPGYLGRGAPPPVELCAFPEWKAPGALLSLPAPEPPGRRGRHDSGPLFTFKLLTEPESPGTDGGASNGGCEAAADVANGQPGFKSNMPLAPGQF
Protocol: (§1) Membranes were prepared from COS-7 cells (African Green monkey kidney SV40-transformed cells) that had been transfected with one of the three α1-AR subtypes (Genbank accession number for the α1a subtype: AF013261; Genbank accession number for the α1b subtype: NM000679; Genbank accession number for the α1d subtype: NM000678) using the following method: COS cells from ten 100 mm tissue culture plates were scraped into a 5 mL volume of TE (a mixture of 50 mM Tris-HCl, 5 mM EDTA, pH 7.4). […] The disrupted cells were centrifuged at 1000×g for 10 min at 4° C. Supernatants were centrifuged at 34,500×g for 20 min at 4° C. The membrane pellets were suspended in a 2 mL volume of TNE (a mixture of 50 mM Tris-HCl, 5 mM EDTA and 150 mM NaCl at pH 7.4). An aliquot of the membrane suspension was stored at −70° C. until use. The protein concentration was determined using the BioRad “DC” protein assay kit following membrane solubilization with Triton X-100.
(§2) Triplicate determinations of radio-ligand binding in the presence of increasing concentrations of testing compound were made. The reagents were added to 96-well polypropylene plate wells. […] The plate was incubated at rt for 1 hr. The contents of the wells were filtered through a glass filter (type C) (GF/C) membrane Unifilter plate (Packard Instruments) using the Packard Filtermate cell harvester. The filter plates were dried in a vacuum oven for 30 min at 40° C. 25 μL Microscint 20 liquid scintillation fluid (Packard Instuments) was added to each well. The radioactive content was analyzed in the TopCount microplate scintillation counter (Packard Instruments).

α1a-AR = molecular target: T2, α1a-AR (Homo sapiens, UniProt P35348); assay: α1-Adrenergic receptor radio-ligand binding assay, α1a subtype
T2 construct: expressed in transfected cells; host or cells: COS-7 cells (membranes)
T2 sequence (P35348 1-455 isoform P35348-4): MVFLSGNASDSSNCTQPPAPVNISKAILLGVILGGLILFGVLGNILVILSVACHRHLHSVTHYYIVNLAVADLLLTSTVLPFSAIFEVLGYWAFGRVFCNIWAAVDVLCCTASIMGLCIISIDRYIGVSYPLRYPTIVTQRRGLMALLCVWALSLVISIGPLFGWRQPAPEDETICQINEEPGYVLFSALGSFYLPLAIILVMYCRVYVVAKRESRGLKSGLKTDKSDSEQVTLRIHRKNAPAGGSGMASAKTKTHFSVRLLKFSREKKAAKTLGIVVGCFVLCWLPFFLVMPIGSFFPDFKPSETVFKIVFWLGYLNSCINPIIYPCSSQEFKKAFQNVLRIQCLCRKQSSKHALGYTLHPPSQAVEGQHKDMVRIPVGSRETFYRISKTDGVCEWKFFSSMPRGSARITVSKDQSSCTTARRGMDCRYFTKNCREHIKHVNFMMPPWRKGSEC
Protocol: as §1, §2

α1d-AR = molecular target: T3, α1d-AR (Homo sapiens, UniProt P25100); assay: α1-Adrenergic receptor radio-ligand binding assay, α1d subtype
T3 construct: expressed in transfected cells; host or cells: COS-7 cells (membranes)
T3 sequence (P25100 1-572): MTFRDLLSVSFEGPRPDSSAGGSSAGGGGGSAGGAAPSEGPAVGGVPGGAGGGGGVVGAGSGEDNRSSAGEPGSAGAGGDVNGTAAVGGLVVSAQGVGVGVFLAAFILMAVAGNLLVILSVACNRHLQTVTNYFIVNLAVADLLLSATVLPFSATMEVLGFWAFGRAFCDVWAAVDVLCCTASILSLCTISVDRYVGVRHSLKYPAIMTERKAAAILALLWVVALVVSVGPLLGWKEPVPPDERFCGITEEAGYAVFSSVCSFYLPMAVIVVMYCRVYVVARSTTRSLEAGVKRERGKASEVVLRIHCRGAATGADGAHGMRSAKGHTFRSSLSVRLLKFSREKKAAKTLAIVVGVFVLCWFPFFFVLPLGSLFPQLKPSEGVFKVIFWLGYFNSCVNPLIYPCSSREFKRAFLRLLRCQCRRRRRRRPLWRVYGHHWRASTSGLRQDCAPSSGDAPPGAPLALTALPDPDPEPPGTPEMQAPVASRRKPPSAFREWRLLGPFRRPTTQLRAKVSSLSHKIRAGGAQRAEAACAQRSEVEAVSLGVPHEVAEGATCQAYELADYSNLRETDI
Protocol: as §1, §2

[1] = 125I-HEAT, membranes of COS-7 cells transfected with α1b subtype, rt 1 hr, read-out: Receptor Binding, Ki α1b-AR
[2] = 125I-HEAT, membranes of COS-7 cells transfected with α1a subtype, rt 1 hr, read-out: Receptor Binding, Ki α1a-AR
[3] = 125I-HEAT, membranes of COS-7 cells transfected with α1d subtype, rt 1 hr, read-out: Receptor Binding, Ki α1d-AR
[4] = read-out: Receptor Binding, Ki α1a-AR

Compound	Ki (α1b-AR; [1]) [nM]	Ki (α1a-AR) [nM]	Ki (α1d-AR) [nM]	Ki (α1a-AR; [2]) [nM]	Ki (α1d-AR; [3]) [nM]	Ki (α1b-AR) [nM]	Ki (α1a-AR; [4]) [nM]
COc1ccc(S(=O)(=O)N[C@H]2CC[C@@H](N3CCC(c4ccccc4OC(C)C)CC3)CC2)cc1OC [Cpd 1, N-cis-{4-[4-(2-isopropoxy-phenyl)-piperidin-1-yl]-cyclohexyl}-3,4-dimethoxy-benzenesulfonamide]	144	1.2	1.8				
COc1ccc(S(=O)(=O)N[C@H]2CC[C@H](N3CCC(c4ccccc4OC(C)C)CC3)CC2)cc1OC [Cpd 2, N-trans-{4-[4-(2-isopropoxy-phenyl)-piperidin-1-yl]-cyclohexyl}-3,4-dimethoxy-benzenesulfonamide]	148			27.8	40.2		
COc1ccc(S(=O)(=O)N[C@H]2CC[C@@H](N3CCC(c4ccccc4OCC(F)(F)F)CC3)CC2)cc1OC [Cpd 5, 3,4-dimethoxy-N-cis-(4-{4-[2-(2,2,2-trifluoro-ethoxy)-phenyl]-piperidin-1-yl}-cyclohexyl)-benzenesulfonamide]		3	7.3			470	
COc1ccc(S(=O)(=O)N[C@H]2CC[C@H](N3CCC(c4ccccc4OCC(F)(F)F)CC3)CC2)cc1OC [Cpd 6, 3,4-dimethoxy-N-trans-(4-{4-[2-(2,2,2-trifluoro-ethoxy)-phenyl]-piperidin-1-yl}-cyclohexyl)-benzenesulfonamide]		1.4	88.6			1380	
COc1ccc(S(=O)(=O)N[C@H]2CC[C@@H](N3CCC(c4ccccc4OC4CC4)CC3)CC2)cc1OC [Cpd 7, N-cis-{4-[4-(2-cyclopropoxy-phenyl)-piperidin-1-yl]-cyclohexyl}-3,4-dimethoxy-benzenesulfonamide]	141			0.91	2		
COc1ccc(S(=O)(=O)N[C@H]2CC[C@H](N3CCC(c4ccccc4OC4CC4)CC3)CC2)cc1OC [Cpd 8, N-trans-{4-[4-(2-cyclopropoxy-phenyl)-piperidin-1-yl]-cyclohexyl}-3,4-dimethoxy-benzenesulfonamide]	133	10.8	33.6				
COc1ccc(Cl)cc1S(=O)(=O)N[C@H]1CC[C@@H](N2CCC(c3ccccc3OC3CC3)CC2)CC1 [Cpd 9, 5-chloro-N-cis-{4-[4-(2-cyclopropoxy-phenyl)-piperidin-1-yl]-cyclohexyl}-2-methoxy-benzenesulfonamide]	82			1.3	2.6		
COc1ccc(Cl)cc1S(=O)(=O)N[C@H]1CC[C@H](N2CCC(c3ccccc3OC3CC3)CC2)CC1 [Cpd 10, 5-chloro-N-trans-{4-[4-(2-cyclopropoxy-phenyl)-piperidin-1-yl]-cyclohexyl}-2-methoxy-benzenesulfonamide]	305			4.5	47		
O=S(=O)(N[C@H]1CC[C@@H](N2CCC(c3ccccc3OC3CC3)CC2)CC1)c1cc(Cl)ccc1F [Cpd 11, 5-chloro-N-cis-{4-[4-(2-cyclopropoxy-phenyl)-piperidin-1-yl]-cyclohexyl}-2-fluoro-benzenesulfonamide]	107			1.8	2.1		
O=S(=O)(N[C@H]1CC[C@H](N2CCC(c3ccccc3OC3CC3)CC2)CC1)c1cc(Cl)ccc1F [Cpd 12, 5-chloro-N-trans-{4-[4-(2-cyclopropoxy-phenyl)-piperidin-1-yl]-cyclohexyl}-2-fluoro-benzenesulfonamide]	337			3.8	32		
O=S(=O)(N[C@H]1CC[C@@H](N2CCC(c3ccccc3OC3CC3)CC2)CC1)c1ccc(Cl)cc1Cl [Cpd 15, 2,4-dichloro-N-cis-{4-[4-(2-cyclopropoxy-phenyl)-piperidin-1-yl]-cyclohexyl}-benzenesulfonamide]	839			79	6.1		
O=S(=O)(N[C@H]1CC[C@H](N2CCC(c3ccccc3OC3CC3)CC2)CC1)c1ccc(Cl)cc1Cl [Cpd 16, 2,4-dichloro-N-trans-{4-[4-(2-cyclopropoxy-phenyl)-piperidin-1-yl]-cyclohexyl}-benzenesulfonamide]	411			30.4	2.4		
O=S(=O)(N[C@H]1CC[C@@H](N2CCC(c3ccccc3OC3CC3)CC2)CC1)c1ccc2c(c1)OCO2 [Cpd 21, benzo[1,3]dioxole-5-sulfonic acid cis-{4-[4-(2-cyclopropoxy-phenyl)-piperidin-1-yl]-cyclohexyl}-amide]		15.6	13			275	
O=S(=O)(N[C@H]1CC[C@H](N2CCC(c3ccccc3OC3CC3)CC2)CC1)c1ccc2c(c1)OCO2 [Cpd 22, benzo[1,3]dioxole-5-sulfonic acid trans-{4-[4-(2-cyclopropoxy-phenyl)-piperidin-1-yl]-cyclohexyl}-amide]		14	57			340	
COc1ccc(S(=O)(=O)N[C@H]2CC[C@@H](N3CCC(c4ccc(F)cc4OC(C)C)CC3)CC2)cc1OC [Cpd 31, N-cis-{4-[4-(4-fluoro-2-isopropoxy-phenyl)-piperidin-1-yl]-cyclohexyl}-3,4-dimethoxy-benzenesulfonamide]	690		12.4	16			
COc1ccc(S(=O)(=O)N[C@H]2CC[C@H](N3CCC(c4ccc(F)cc4OC(C)C)CC3)CC2)cc1OC [Cpd 32, N-trans-{4-[4-(4-fluoro-2-isopropoxy-phenyl)-piperidin-1-yl]-cyclohexyl}-3,4-dimethoxy-benzenesulfonamide]	639			23	60		
COc1ccc(S(=O)(=O)N[C@H]2CC[C@@H](N3CCC(c4cc(F)ccc4OC(C)C)CC3)CC2)cc1OC [Cpd 33, N-cis-{4-[4-(5-fluoro-2-isopropoxy-phenyl)-piperidin-1-yl]-cyclohexyl}-3,4-dimethoxy-benzenesulfonamide]	299				1.6		3.3
COc1ccc(S(=O)(=O)N[C@H]2CC[C@H](N3CCC(c4cc(F)ccc4OC(C)C)CC3)CC2)cc1OC [Cpd 34, N-trans-{4-[4-(5-fluoro-2-isopropoxy-phenyl)-piperidin-1-yl]-cyclohexyl}-3,4-dimethoxy-benzenesulfonamide]	1490				53		43
